Test results reported in patent US6421455B1, “Method for detecting cancer on skin of humans and mammals and arrangement for performing the method” (Medeikonos AB, priority 1996, dated 2002).

Key:
[1] = Solubility of ALA in water; type: physicochemical; conditions: ALA in the form of powder
Description: (§1) The method according to the invention is carried out in the way that first a water-in-oil emulsion or an oil-in-water emulsion is prepared form a compound called delta amino levulinic acid (ALA) having an ALA concentration of 5-25%. […] This agent which has the formula I is normally produced in the body in the […] and is a building stone for the haemoglobin. [drawing 1]

[2] = test system: skin cancer (tumours) on skin; experiment: Imaging fluorescence spectroscopy of skin after topical ALA application; type: in vivo, human; conditions: exciting light about 0,5 mW/cm^2, exposing time 2 s
Description: as §1

SMILES: NCC(=O)CCC(=O)O [ALA, delta amino levulinic acid]
- solubility in water [1]: easily solved in water
- average fluorescence level within area B (ALA-treated skin without detected tumours) relative to area A (untreated skin, skin auto fluorescence) ([2]; FIG. 1, back of a person): 1,9 ×
- fluorescence intensity of white-contoured areas (tumours, areas 1-4) relative to skin auto fluorescence ([2]; FIG. 1, back of a person): 2,75 ×
- average fluorescence level in area B (ALA-treated skin without detected tumours) relative to area A (untreated skin, skin auto fluorescence) ([2]; FIG. 2, breast of a person): 2,0 ×
- fluorescence intensity of white-contoured areas (tumour, area 7) relative to skin auto fluorescence ([2]; FIG. 2, breast of a person): > 2,75 ×
